Reference: patent publication US6949250B2, “Selective algaecides for control of cyanochloronta” (The United States of America as represented by the …, priority 2002, dated 2005)
Values after ≈ are worked out from the molar mass of the structure shown. “Also recorded” adds a separate entry of the source. Read-outs that look alike come from different tables or passages of the source.

Assays:
O. perornata [1] = conditions: cited from earlier work
MIB = test: Pond efficacy testing of 9,10-anthraquinone using limnocorrals: MIB levels; assay type: in vivo; conditions: dissolved in ethanol, unpublished observations
Source text: (§1) Previous research (K. K. Schrader, M. Q. de Regt, P. D. Tidwell, C. S. Tucker and S. O. Duke, Selective growth inhibition of the musty-odor producing cyanobacterium Oscillatoria cf. chalybea by natural compounds. Bull. Environ. Contam. Toxicol. (1998a), vol. 60, pp. 651-658) has identified several natural compounds from plants that are selectively toxic towards O. perornata.

O. perornata [2] = test: Pond efficacy testing of 9,10-anthraquinone using limnocorrals: O. perornata numbers; assay type: in vivo, Oscillatoria perornata; conditions: dissolved in ethanol, unpublished observations
Source text: as §1

[3] = test system: Selenastrum capricornutum; test: Rapid bioassay screening for selective algicides (LOEC, LCIC); assay type: cell-based; conditions: for MIC / minimal effective concentration: Selenastrum capricornutum; for MIC: read-out: LCIC (lowest-complete-inhibition concentration), Selenastrum capricornutum; for minimal effective concentration: read-out: LOEC (lowest-observed-effect concentration), Selenastrum capricornutum
Source text: (§2) These were screened in the laboratory by the method of Schrader et al. (K. K. Schrader, M. Q. de Regt, C. S. Tucker and S. O. Duke, A rapid bioassay for selective algicides. Weed Technol. (1997), vol. 11, pp. 767-774) for algicidal activity.
(§3) The anthraquinone derivatives were screened for selective toxicity towards Oscillatoria perornata, previously isolated from a Mississippi catfish pond, using the method of Schrader et al. (1997). The green alga Selenastrum capricornutum (obtained from the United States Environmental Protection Agency, Corvallis, Oreg.) was used as the representative green algal species in the bioassay since it is a common species found in southeastern United States catfish ponds. Absorbance readings were graphed, and graphs were used to determine the LOEC (lowest-observed-effect concentration) and the LCIC (lowest-complete-inhibition concentration) for each anthraquinone analog. In addition, a 96-hour 50% inhibition concentration (IC50) was determined for DNA1-19-1 and DNA2-59-1 by using the method described by Schrader et al. (1998b). Stock solutions of DNA1-19-1 and DNA2-59-1 were prepared so that final concentrations screened for 96-hour IC50 determinations were as follows: 1) 0, 0.01, 0.033, 0.1, 0.333, 1.0, 3.3, and 10.0 μM DNA1-19-1 for both O. perornata and S. capricornutum; 2) 0, 0.003, 0.01, 0.033, 0.1, 0.333, 1.0, and 3.333 μM DNA2-59-1 for O. perornata; and 3) 0, 0.1, 0.333, 1.0, 3.333, 10.0, 33.333, and 100.0 μM DNA2-59-1 for S. capricornutum. Estimation of the IC50 was determined by plotting 96-hour absorbance readings against logarithmic dilution values of the anthraquinone analogs. The screening results of the anthraquinone derivatives and commercially available analogs of anthraquinone are presented in Tables 1 and 2, respectively. The results in Table 1 reveal that DNA1-19-1 and DNA2-59-1 are the most promising analogs since these two compounds had the lowest LOEC and LCIC values for O. perornata (10 nM and 100 nM, respectively). Based upon IC50 results in Table 3, DNA2-59-1 appears to be more toxic and selective towards O. perornata than DNA1-19-1.
as §3, with “(A rapid bioassay for selective algicides. Weed Technol. (1997), vol. 11, pp. 767-774).” for “(1997).”, “(K. K. Schradar, M. Q. de Regt, P. D. Tidwell, C. S. Tucker and S. O. Duke, Selective growth inhibition of the musty-odor producing cyanobacterium Oscillatoria cf. chalybea by natural compounds. Bull. Environ. Contam. Toxicol. (1998a), vol.60, pp. 651-658).” for “(1998b).”, “The screening results of the anthraquinone derivatives and commercially available analogs of anthraquinone are presented in Tables 1 and 2, respectively. The results in Table 1 reveal that DNA1-19-1 and DNA2-59-1 are the most promising analogs since these two compounds had the lowest LOEC and LCIC values for O. perornata (10 nM and 100 nM, respectively). Based upon IC50 results in Table 3, DNA2-59-1 appears to be more toxic and selective towards O. perornata than DNA1-19-1.” left out

Oscillatoria perornata = test: as above; assay type: cell-based; conditions: for MIC: read-out: LCIC (lowest-complete-inhibition concentration), Oscillatoria perornata; for minimal effective concentration: read-out: LOEC (lowest-observed-effect concentration), Oscillatoria perornata
Source text: as §2, §3
as §3, with “(A rapid bioassay for selective algicides. Weed Technol. (1997), vol. 11, pp. 767-774).” for “(1997).”, “(K. K. Schradar, M. Q. de Regt, P. D. Tidwell, C. S. Tucker and S. O. Duke, Selective growth inhibition of the musty-odor producing cyanobacterium Oscillatoria cf. chalybea by natural compounds. Bull. Environ. Contam. Toxicol. (1998a), vol.60, pp. 651-658).” for “(1998b).”, “The screening results of the anthraquinone derivatives and commercially available analogs of anthraquinone are presented in Tables 1 and 2, respectively. The results in Table 1 reveal that DNA1-19-1 and DNA2-59-1 are the most promising analogs since these two compounds had the lowest LOEC and LCIC values for O. perornata (10 nM and 100 nM, respectively). Based upon IC50 results in Table 3, DNA2-59-1 appears to be more toxic and selective towards O. perornata than DNA1-19-1.” left out

[4] = Planktothrix perornata, rapid screening

SMILES | MIC ([3]; rapid screening) | minimal effective concentration ([3]; rapid screening) | MIC (Oscillatoria perornata; [4]) | minimal effective concentration (Oscillatoria perornata; [4]) | LCIC (lowest-complete-inhibition concentration), Selenastrum capricornutum ([3]; rapid screening) | LOEC (lowest-observed-effect concentration), Selenastrum capricornutum ([3]; rapid screening) | LCIC (lowest-complete-inhibition concentration), Oscillatoria perornata (Oscillatoria perornata; rapid screening) | further results
O=C1c2ccccc2C(=O)c2ccccc21 [9,10-anthraquinone] |  |  |  |  |  |  |  | effect on photosynthesis (result in words) (O. perornata [1]; Schrader et al. 2000): inhibits photosynthesis; activity / toxicity towards O. perornata in the laboratory (result in words) (O. perornata [1]; previous research (Schrader et al. 1998)): high degree of selective toxicity; also recorded: potent activity; reduction of MIB levels in pond (result in words) (MIB): did not effectively reduce; reduction of numbers of O. perornata in pond (result in words) (O. perornata [2]): did not effectively reduce
COCCOCCOCCOc1cccc2c1C(=O)c1ccccc1C2=O [DNA3-11-1, 1-[2-[2-(2-Methoxyethoxy)ethoxy]ethoxy]-9,10-anthraquinone] | > 100 µM | > 100 µM | 10 µM (≈ 3.7 µg/mL) | 10 µM |  |  |  | 
COCCOc1cccc2c1C(=O)c1ccccc1C2=O [DNA3-13-1, 1-(2-Methoxyethoxy)-9,10-anthraquinone] | > 100 µM | 0.01 µM | 10 µM (≈ 2.82 µg/mL) | 10 µM |  |  |  | 
O=C1c2ccccc2C(=O)c2c(OCCOCCOCCO)cccc21 [DNA3-15-1, 1-[2-[2-(2-Hydroxyethoxy)ethoxy]ethoxy]-9,10-anthraquinone] | > 100 µM | 0.01 µM | 10 µM (≈ 3.56 µg/mL) | 10 µM |  |  |  | 
CCNCc1ccc2c(c1)C(=O)c1ccccc1C2=O.O=P(O)(O)O [DNA3-17-1, 2-[Methylamino-N-(ethyl)]-9,10-anthraquinone monophosphate] |  |  |  |  | 10,000 nM | 10,000 nM | 1,000 nM | LOEC (lowest-observed-effect concentration), Oscillatoria perornata (Oscillatoria perornata; rapid screening): 1,000 nM
CNCc1ccc2c(c1)C(=O)c1ccccc1C2=O.O=P(O)(O)O [DNA3-19-1, 2-[Methylamino-N-(methyl)]-9,10-anthraquinone monophosphate] |  |  |  |  | 10,000 nM | 10,000 nM | 1,000 nM | LOEC (lowest-observed-effect concentration), Oscillatoria perornata (Oscillatoria perornata; rapid screening): 1,000 nM
CCCNCc1ccc2c(c1)C(=O)c1ccccc1C2=O.O=P(O)(O)O [DNA3-31-1, 2-[Methylamino-N-(propyl)]-9,10-anthraquinone monophosphate] |  |  |  |  | 10,000 nM | 10,000 nM | 1,000 nM | LOEC (lowest-observed-effect concentration), Oscillatoria perornata (Oscillatoria perornata; rapid screening): 1,000 nM
CC(C)(C)NCc1ccc2c(c1)C(=O)c1ccccc1C2=O.O=P(O)(O)O [DNA3-33-1, 2-[Methylamino-N-(1′1′-dimethylethyl)]-9,10-anthraquinone monophosphate] |  |  |  |  | 10,000 nM | 1,000 nM | 1,000 nM | LOEC (lowest-observed-effect concentration), Oscillatoria perornata (Oscillatoria perornata; rapid screening): 1,000 nM
O=C1c2ccccc2C(=O)c2cc(CNC3CC3)ccc21.O=P(O)(O)O [DNA3-35-1, 2-[Methylamino-N-(cyclopropyl)]-9,10-anthraquinone monophosphate] |  |  |  |  | 100,000 nM | 10,000 nM | 1,000 nM | LOEC (lowest-observed-effect concentration), Oscillatoria perornata (Oscillatoria perornata; rapid screening): 1,000 nM
O=C1c2ccccc2C(=O)c2c(OCCOCCOCCOCCOCCO)cccc21 [DNA3-49-1, 1-[2-[2-[2-[2-(2-Hydroxyethoxy)ethoxy]ethoxy]ethoxy]ethoxy]-9,10-anthraquinone] | > 100 µM | > 100 µM | 10 µM (≈ 4.44 µg/mL) | 1 µM |  |  |  | 
O=C1c2ccccc2C(=O)c2cc(OCCOCCOCCOCCOCCO)ccc21 [DNA3-51-1, 2-[2-[2-[2-[2-(2-Hydroxyethoxy)ethoxy]ethoxy]ethoxy]ethoxy]-9,10-anthraquinone] | > 100 µM | > 100 µM | 100 µM (≈ 44.4 µg/mL) | 0.1 µM |  |  |  | 
COCCOCCOCCOCCOc1cccc2c1C(=O)c1ccccc1C2=O [DNA3-53-1, 1-[2-[2-[2-(2-Methoxyethoxy)ethoxy]ethoxy]ethoxy]-9,10-anthraquinone] | > 100 µM | 100 µM | 100 µM (≈ 41.4 µg/mL) | 10 µM |  |  |  | 
COCCOCCOCCOCCOc1ccc2c(c1)C(=O)c1ccccc1C2=O [DNA3-55-1, 2-[2-[2-[2-(2-Methoxyethoxy)ethoxy]ethoxy]ethoxy]-9,10-anthraquinone] | > 100 µM | > 100 µM | 100 µM (≈ 41.4 µg/mL) | 10 µM |  |  |  | 
O=C1c2ccccc2C(=O)c2cc(COCCOCCOCCO)ccc21 [DNA3-57-1, 2-Methylene-[2-[2-(2-hydroxyethoxy)ethoxy]ethoxy]-9,10-anthraquinone] |  |  |  |  | >100,000 nM | >100,000 nM | 10,000 nM | minimal effective concentration (Oscillatoria perornata; rapid screening): 0.1 µM
O=C1c2ccccc2C(=O)c2cc(COCCOCCOCCOCCO)ccc21 [DNA3-59-1, 2-Methylene-[2-[2-[2-(2-hydroxyethoxy)ethoxy]ethoxy]ethoxy]-9,10-anthraquinone] |  |  |  |  | >100,000 nM | >100,000 nM | 100,000 nM | minimal effective concentration (Oscillatoria perornata; rapid screening): 0.1 µM
COCCOCCOCCOCc1ccc2c(c1)C(=O)c1ccccc1C2=O [DNA3-61-1, 2-methylene-[2-[2-(2-methoxyethoxy)ethoxy]ethoxy]-9,10-anthraquinone] |  |  |  |  | >100,000 nM | >100,000 nM | 10,000 nM | minimal effective concentration (Oscillatoria perornata; rapid screening): 0.1 µM
CCN(CC)Cc1cccc2c1C(=O)c1ccccc1C2=O [DNA4-39-1, 1-[Methylamino-N,N-(diethyl)]-9,10-anthraquinone monophosphate] |  |  |  |  | 10,000 nM | 10,000 nM | 1,000 nM | minimal effective concentration (Oscillatoria perornata; rapid screening): 0.1 µM
O=C1c2cccc(S(=O)(=O)O)c2C(=O)c2cccc(S(=O)(=O)O)c21 [anthraquinone-1,5-disulfonic acid, reference compound] | > 1000 µM |  | > 1000 µM |  |  |  |  | 
O=C(O)c1ccc2c(c1)C(=O)c1ccccc1C2=O [anthraquinone-2-carboxylic acid, reference compound] |  |  |  |  |  |  |  | MIC [3]: > 1000 µM; MIC (Oscillatoria perornata; Planktothrix perornata): > 1000 µM
